From ChEMBL document CHEMBL1201862, “PubChem BioAssay data set” (2004) come the findings set out here.

Test systems include SK-MEL-5; COLO 205; CCRF-CEM; MOLT-4; SNB-75; UACC-62; SK-MEL-28; SNB-78; HL-60; OVCAR-5; HCT-116; SR; RXF 393; SF-295; M14; IGROV-1; BT-549; MDA-N; Hs-578T; MDA-MB-435.
What all share (assay): NCI anticancer screen, dose series, 48 h

Structures are written as SMILES.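 Tested at 5 concentrations; 48 h exposure; 96-well plates; endpoints linearly interpolated, else capped at highest concentration. At the GI50, growth is halved.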 Activity calls are given as the source filed them. No stated cut-off is given here; in the data, active = GI50 up to about 1.1 µM and inactive = higher. A value given as a limit tells only on which side of the number the result lay.

Take `COc1cc([C@@H]2c3cc4c(cc3[C@@H](OC(=O)c3cccc(N)c3)C3COC(=O)[C@@H]32)OCO4)cc(OC)c1O` (stereo not given in full): the GI50 in the assay with SK-MEL-5 is 0.536 µM (active); in the assay on COLO 205, 11.3 µM (inactive); in the assay on CCRF-CEM it was 2.18 µM (inactive); in the assay with MOLT-4 it was 1.91 µM (inactive); in the assay on SNB-75 it was 5.36 µM (inactive); with UACC-62, 0.667 µM (active). The GI50 in the assay with SK-MEL-28 is 0.91 µM (active); with SNB-78, 64.4 µM (inactive); in the assay with HL-60 it was 2.7 µM (inactive); in the assay with OVCAR-5 it was 17.9 µM (inactive); in the assay with HCT-116, 5.71 µM (inactive); with SR, 0.565 µM (active). Moreover, the GI50 in the assay on RXF 393 was 0.632 µM (active); in the assay on SF-295, 0.32 µM (active); in the assay with M14, 0.933 µM (active); with IGROV-1, 13.8 µM (inactive).
In the case of `C=CCCn1nc(-c2ccccc2)oc1=O`, the GI50 in the assay with SK-MEL-5, with COLO 205, in the assay with CCRF-CEM, in the assay with MOLT-4, in the assay with SNB-75 and in the assay on UACC-62 was > 100 µM (inactive) in each case. Moreover, the GI50 in the assay with SK-MEL-28, with SNB-78, in the assay with HL-60, in the assay on OVCAR-5, in the assay with HCT-116 and in the assay with SR was > 100 µM (inactive) in each case. Further, the GI50 in the assay with RXF 393, in the assay with SF-295, in the assay with M14 and with IGROV-1 was > 100 µM (inactive) each time.
For the compound `Cc1cn2c(=O)c3ccccc3nc2s1`, the GI50 in the assay on SK-MEL-5 was > 100 µM (inactive); in the assay with COLO 205, > 100 µM (inactive); in the assay with CCRF-CEM, > 100 µM (inactive); with MOLT-4 it was > 100 µM (inactive); with SNB-75 it was 92.3 µM (inactive); in the assay on UACC-62, > 100 µM (inactive). The GI50 in the assay on SK-MEL-28, in the assay with SNB-78, with HL-60, with OVCAR-5, with HCT-116 and in the assay with SR was > 100 µM (inactive) throughout. Besides, the GI50 in the assay with RXF 393, in the assay on SF-295, in the assay with M14 and in the assay on IGROV-1 was > 100 µM (inactive) throughout.
On to `Oc1cc(O)c2c(-c3c(O)c(-c4ccc(O)c(O)c4)[o+]c4cc(O)cc(O)c34)c(O)c(-c3ccc(O)c(O)c3)[o+]c2c1`, for which the GI50 in the assay on SK-MEL-5 was > 100 µM (inactive); in the assay on COLO 205, 42.5 µM (inactive); in the assay on CCRF-CEM it was > 10 µM (inactive); in the assay on MOLT-4 it was 30.5 µM (inactive); with SNB-75, 24 µM (inactive); with UACC-62 it was 22.6 µM (inactive). The GI50 with SK-MEL-28 was 91.2 µM (inactive); in the assay on SNB-78, 51.5 µM (inactive); with HL-60, > 10 µM (inactive); in the assay with OVCAR-5 it was > 100 µM (inactive); in the assay with HCT-116 it was 48.8 µM (inactive); with SR, 25.9 µM (inactive). The GI50 in the assay on RXF 393 was 35.9 µM (inactive); in the assay with SF-295, 41.8 µM (inactive); in the assay on M14 it was 55.5 µM (inactive); in the assay with IGROV-1, 48 µM (inactive).
In the case of `CN(c1ccccc1)c1c(Cl)c(=O)oc2c1ccc1occc12`, the GI50 with SK-MEL-5 was > 100 µM (inactive); in the assay with CCRF-CEM it was 64.7 µM (inactive); in the assay with MOLT-4 it was 55.2 µM (inactive); in the assay on SNB-75, > 100 µM (inactive); in the assay with UACC-62, 40.6 µM (inactive); with SK-MEL-28 it was > 100 µM (inactive). Further, the GI50 with SNB-78 is > 100 µM (inactive); in the assay with HL-60 it was 15.6 µM (inactive); in the assay with OVCAR-5 it was > 100 µM (inactive); in the assay with HCT-116, 81.8 µM (inactive); in the assay on SR, 44 µM (inactive); in the assay with RXF 393 it was > 100 µM (inactive). In addition, the GI50 with SF-295 and in the assay on M14 was > 100 µM (inactive) in each case.
Take `CN=[S+]([O-])(c1ccccc1)c1ccccc1`: the GI50 was > 100 µM (inactive) in the assay with SK-MEL-5; > 100 µM (inactive) in the assay on COLO 205; > 100 µM (inactive) in the assay with CCRF-CEM; > 100 µM (inactive) in the assay with MOLT-4; 96.8 µM (inactive) in the assay on SNB-75; > 100 µM (inactive) in the assay on UACC-62. The GI50 in the assay on SK-MEL-28, with SNB-78, with HL-60, in the assay on OVCAR-5, in the assay on HCT-116 and in the assay on SR was > 100 µM (inactive) each time. For the same compound, the GI50 in the assay with RXF 393, in the assay on SF-295, in the assay on M14 and with IGROV-1 was > 100 µM (inactive) throughout.
For `NC(=S)N/N=C(\CCC(=O)Nc1ccccc1[N+](=O)[O-])CC(=O)c1ccco1`, the GI50 in the assay with SK-MEL-5, in the assay with COLO 205, in the assay with CCRF-CEM, in the assay on MOLT-4, with SNB-75 and with UACC-62 was > 100 µM (inactive) each time. Besides, the GI50 with SK-MEL-28, in the assay with SNB-78, in the assay on HL-60, in the assay on OVCAR-5, in the assay on HCT-116 and in the assay on SR was > 100 µM (inactive) throughout. Further, the GI50 in the assay with RXF 393, in the assay on SF-295, with M14 and with IGROV-1 was > 100 µM (inactive) throughout.
For `COc1ccccc1C(O)(c1ccccc1)C(O)(c1ccccc1)c1ccccc1OC` (stereo not given), the GI50 was > 100 µM (inactive) in the assay with SK-MEL-5; > 100 µM (inactive) in the assay with COLO 205; > 100 µM (inactive) in the assay on CCRF-CEM; 48.1 µM (inactive) in the assay with MOLT-4; 41.6 µM (inactive) with SNB-75; > 100 µM (inactive) with UACC-62. Besides, the GI50 was > 100 µM (inactive) in the assay on SK-MEL-28; > 100 µM (inactive) with SNB-78; 9.82 µM (inactive) in the assay on HL-60; > 100 µM (inactive) with OVCAR-5; > 100 µM (inactive) in the assay on HCT-116; > 100 µM (inactive) in the assay with SR. In addition, the GI50 with RXF 393, in the assay with SF-295, with M14 and in the assay with IGROV-1 was > 100 µM (inactive) each time.
Regarding `O=S1(=O)NN=C(NCc2ccc(F)cc2)c2ccccc21`, the GI50 in the assay on SK-MEL-5 was > 68.2 µM (inactive); in the assay with BT-549 it was 67.5 µM (inactive); in the assay on COLO 205 it was > 76.4 µM (inactive); with MDA-N, > 100 µM (inactive); with CCRF-CEM, 23.7 µM (inactive); in the assay on MOLT-4 it was > 36 µM (inactive). In addition, the GI50 in the assay with UACC-62 is 34.7 µM (inactive); with SK-MEL-28, > 100 µM (inactive); in the assay on SNB-78 it was 55.6 µM (inactive); with HL-60, 13.1 µM (inactive); in the assay on Hs-578T it was 17.5 µM (inactive); in the assay with OVCAR-5, > 100 µM (inactive). Moreover, the GI50 is > 100 µM (inactive) with MDA-MB-435; > 100 µM (inactive) with HCT-116; > 44.7 µM (inactive) with SR; 34.9 µM (inactive) in the assay with RXF 393; > 71.9 µM (inactive) with SF-295; > 50.9 µM (inactive) in the assay on M14. Moreover, the GI50 with IGROV-1 is > 72.4 µM (inactive).
